Experimental data taken from US10745428B2, “Antiviral phosphodiamide prodrugs of tenofovir” (Merck Sharp & Dohme Corp., priority 2015, dated 2020).
Where two headings read alike, the source gives them in different places.

Columns and labels:
[1] = Prodrug stability assay in bio-relevant media (FaSSIF with Pancreatin), GI Tract stability; assay type: in vitro ADME; conditions: HPLC peak area of prodrug at 5 h divided by area at 0 h; 0.5 mg/mL Pancreatin in FaSSIF, 37° C.
Description: The following assay was employed to evaluate the stability of the prodrugs in simulated gastrointestinal tract conditions. Preparation of fasted state simulated intestinal fluid (FaSSIF) using Phares SIF Powder was carried out according to protocols from Phare Drug Delivery AG (Baselland, Switzerland). For sample preparation, 10 μL stock solutions (10 mM) of prodrug substance in DMSO was added to 990 μL of 0.5 mg/mL Pancreatin solution (Fisher CAS#8049-47-6) in FaSSIF. Two samples were prepared for each compound. If the sample was a clear solution, it was directly analyzed by HPLC. If the sample was not clear, the sample was diluted with 100% ACN, maintained at 37° C. and observed 5 h later. If the sample was clear, HPLC analysis was directly performed. If the sample was still not clear, the sample was diluted with 100% ACN and assayed by HPLC. All the samples were vortexed for 3 min and observed before injection. For the diluted samples, the area is multiplied by a factor when the data is analyzed. The analysis was carried out with an Agilent 1100 series HPLC with autosampler. The column was usually a Poroshell 120 EC-C18, 4.6×50 mm, 2.7 μm. The flow rate was 1.8 mL/min, and the injection volume was 5 or 10 μL. UV detection was in the range 210-400 nm. The mobile phase consisted of solvent A (water plus 10 mM tetrabutylammonium bromide) and solvent B (acetonitrile) with a gradient of 90% solvent A at 0 min, changing to 95% solvent B over 6 min, maintaining for 1.5 min, then reverting to 90% solvent A over 1.6 min. The HPLC peak area of the prodrug at 5 h was divided by the HPLC peak area of the prodrug at 0 h, to generate the % claimed parent ratio, which is summarized in Table 2. for GI Tract stability.

HIV-1 (H9/IIIB strain) = experiment: Multiple round HIV-1 infection assay (Viking assay), HIV-1 replication in MT4-GFP cells; assay type: cell-based; conditions: MT4-GFP cells infected with HIV-1 H9/IIIB
Description: The antiviral activity of the tenofovir prodrugs of the Examples herein was assessed in an assay that measures the rate of replication of HIV in cell culture, termed the Viking assay (VIral KINetics in Green cells) and performed as follows. HIV-1 replication was monitored using MT4-gag-GFP clone D3 (hereafter designated MT4-GFP; GFP is green fluorescent protein), which are MT-4 cells modified to harbor a GFP reporter gene, the expression of which is dependent on the HIV-1 expressed proteins tat and rev; see Wang Y-J et al., 2010J Virological Methods 165:230-237. Productive infection of an MT4-GFP cell with HIV-1 results in GFP expression approximately 24 h post-infection. MT4-GFP cells were maintained at 37° C./5% CO2/90% relative humidity in RPMI 1640 supplemented with 10% fetal bovine serum, 100 U/ml penicillin/streptomycin, and 400 μg/ml G418 to maintain the reporter gene. For infections, MT4-GFP cells were placed in the same medium lacking G418 and infected overnight with HIV-1 (H9/IIIB strain) virus at an approximate multiplicity of infection of 0.01 in the same incubation conditions. Cells were then washed and re-suspended in either RPMI 1640 supplemented with 10% or 50% normal human serum (NHS) at 1.6×10^5 cells/mL (10% NHS or 50% NHS, respectively). Compound plates were prepared by dispensing compounds dissolved in DMSO into wells of 384 well poly-D-lysine-coated plates (0.2 μl/well) using an ECHO acoustic dispenser. Each compound was tested in a 10-point serial 3-fold dilution (typical final concentrations: 8.4 μM-0.42 nM). Controls included no inhibitor (DMSO only) and a combination of three antiviral agents (efavirenz, indinavir, and an integrase strand transfer inhibitor at final concentrations of 4 μM each). Cells were added (50 μL/well) to compound plates and the infected cells were maintained at 37′C/5% CO2/90% relative humidity.
Infected cells were quantified at two time points, ˜48 h and ˜72 h post-infection, by counting the number of green cells in each well using an Acumen eX3 scanner. The increase in the number of green cells over ˜24 h period gives the reproductive ratio, R0, which is typically 5-15 and has been shown experimentally to be in logarithmic phase (data not shown). R0 is calculated for each well, and IC50s determined by non-linear 4-parameter curve fitting.

[2] = 10% normal human serum, read-out: Viking, IC50 (10% NHS)
[3] = 50% normal human serum, read-out: Viking, IC50 (50% NHS)
[4] = Human immunodeficiency virus 1, IIIB, 10% normal human serum, read-out: Viking, IC50 (10% NHS)
[5] = Human immunodeficiency virus 1, IIIB, 50% normal human serum, read-out: Viking, IC50 (50% NHS)

SMILES | GI Tract stability [1] | IC50 (HIV-1 (H9/IIIB strain); [2]) | IC50 (HIV-1 (H9/IIIB strain); [3]) | IC50 (HIV-1 (H9/IIIB strain); [4]) | IC50 (HIV-1 (H9/IIIB strain); [5])
CCCCCCOC(=O)[C@@H](C)NP(=O)(CO[C@H](C)Cn1cnc2c(N)ncnc21)NC(C)(C)C(=O)OCCCCCC (single isomer, unassigned) [Example 13A] | 99.1% | – | – | 7.2 nM | 40.4 nM
CCCCCCOC(=O)C(C)(C)NP(=O)(CO[C@H](C)Cn1cnc2c(N)ncnc21)N[C@H](C)C(=O)OC1CCCC1 (single isomer, unassigned) [Example 14B] | 47.2% | 0.6 nM | 2 nM | – | –
CCCCCCOC(=O)C(C)(C)NP(=O)(CO[C@H](C)Cn1cnc2c(N)ncnc21)N[C@H](C)C(=O)OC1CCCCC1 (single isomer, unassigned) [Example 15B] | 51.2% | 0.7 nM | 2.1 nM | – | –
CCCCCOC(=O)[C@@H](C)NP(=O)(CO[C@H](C)Cn1cnc2c(N)ncnc21)NC(C)(C)C(=O)OCCCCC (single isomer, unassigned) [Example 16B] | 97.8% | 0.9 nM | 4.2 nM | – | –
CC(C)OC(=O)C(C)(C)NP(=O)(CO[C@H](C)Cn1cnc2c(N)ncnc21)N[C@H](C)C(=O)OC1CCC1 (single isomer, unassigned) [Example 18B] | 97.4% | 11 nM | 25.8 nM | – | –
CC(C)COC(=O)C(C)(C)NP(=O)(CO[C@H](C)Cn1cnc2c(N)ncnc21)N[C@H](C)C(=O)OC1CCC1 (single isomer, unassigned) [Example 20A] | 98.1% | 5.9 nM | 17.4 nM | – | –
CC(C)COC(=O)C(C)(C)NP(=O)(CO[C@H](C)Cn1cnc2c(N)ncnc21)N[C@H](C)C(=O)OC1CCC1 (single isomer, unassigned) [Example 20B] | 71.0% | 1.7 nM | 5.9 nM | – | –
CCCOC(=O)C(C)(C)NP(=O)(CO[C@H](C)Cn1cnc2c(N)ncnc21)N[C@H](C)C(=O)OC1CCC1 (single isomer, unassigned) [Example 22A] | 98.2% | 11.6 nM | 50.9 nM | – | –
CCCOC(=O)C(C)(C)NP(=O)(CO[C@H](C)Cn1cnc2c(N)ncnc21)N[C@H](C)C(=O)OC1CCC1 (single isomer, unassigned) [Example 22B] | 72.6% | 4.4 nM | 15.4 nM | – | –
CCCCOC(=O)C(C)(C)NP(=O)(CO[C@H](C)Cn1cnc2c(N)ncnc21)N[C@H](C)C(=O)OC1CCC1 (single isomer, unassigned) [Example 23B] | 58.6% | 6 nM | 13.6 nM | – | –
CCCCCOC(=O)C(C)(C)NP(=O)(CO[C@H](C)Cn1cnc2c(N)ncnc21)N[C@H](C)C(=O)OC1CCCC1 (single isomer, unassigned) [Example 24A] | 97.8% | 3.2 nM | 30.6 nM | – | –
CCCCCOC(=O)C(C)(C)NP(=O)(CO[C@H](C)Cn1cnc2c(N)ncnc21)N[C@H](C)C(=O)OC1CCCC1 (single isomer, unassigned) [Example 24B] | 82.7% | 0.9 nM | 3.9 nM | – | –
CCCCCOC(=O)[C@@H](C)N(C)P(=O)(CO[C@H](C)Cn1cnc2c(N)ncnc21)NC(C)(C)C(=O)OCCCCC (single isomer, unassigned) [Example 25B] | 94.4% | – | – | 3.6 nM | 9.6 nM
CCCCCOC(=O)[C@H]1CCCN1P(=O)(CO[C@H](C)Cn1cnc2c(N)ncnc21)NC(C)(C)C(=O)OCCCCC (single isomer, unassigned) [Example 26B] | 92.5% | 4.4 nM | 19.5 nM | – | –
C[C@H](Cn1cnc2c(N)ncnc21)OCP(=O)(N[C@H](C)C(=O)OC1CCCC1)NC(C)(C)C(=O)OC1CCCCC1 (single isomer, unassigned) [Example 27B] | 93.5% | 1.6 nM | 4.7 nM | – | –
C[C@H](Cn1cnc2c(N)ncnc21)OCP(=O)(N[C@H](C)C(=O)OC1CCCC1)NC(C)(C)C(=O)OC1CCC1 (single isomer, unassigned) [Example 28B] | 90.2% | 2.7 nM | 3.3 nM | – | –

Now from value to compound, other results behind:

GI Tract stability [1] | SMILES | IC50 (HIV-1 (H9/IIIB strain); [2]) | IC50 (HIV-1 (H9/IIIB strain); [3]) | IC50 (HIV-1 (H9/IIIB strain); [4]) | IC50 (HIV-1 (H9/IIIB strain); [5])
100% | CCCCCCOC(=O)C(C)(C)NP(=O)(CO[C@H](C)Cn1cnc2c(N)ncnc21)N[C@H](C)C(=O)OC(C)C (single isomer, unassigned) [Example 2A] | 15.9 nM | 78 nM | – | –
94.2% | CCCCCCOC(=O)C(C)(C)NP(=O)(CO[C@H](C)Cn1cnc2c(N)ncnc21)N[C@H](C)C(=O)OC(C)C (single isomer, unassigned) [Example 2B] | 1.3 nM | 5.2 nM | – | –
95.6% | CCCCOC(=O)[C@@H](C)NP(=O)(CO[C@H](C)Cn1cnc2c(N)ncnc21)NC(C)(C)C(=O)OC(C)C (single isomer, unassigned) [Example 3B] | 3.8 nM | 20.5 nM | – | –
100% | CCCCCOC(=O)C(C)(C)NP(=O)(CO[C@H](C)Cn1cnc2c(N)ncnc21)N[C@H](C)C(=O)OCCCC (single isomer, unassigned) [Example 9A] | 6.1 nM | 19.8 nM | – | –
73.9% | CCCCCOC(=O)C(C)(C)NP(=O)(CO[C@H](C)Cn1cnc2c(N)ncnc21)N[C@H](C)C(=O)OCCCC (single isomer, unassigned) [Example 9B] | 1 nM | 4.2 nM | – | –
66.8% | CCCCCCOC(=O)C(C)(C)NP(=O)(CO[C@H](C)Cn1cnc2c(N)ncnc21)N[C@H](C)C(=O)OCC(C)C (single isomer, unassigned) [Example 10B] | 0.7 nM | 2 nM | – | –
100% | CCCCCOC(=O)C(C)(C)NP(=O)(CO[C@H](C)Cn1cnc2c(N)ncnc21)N[C@H](C)C(=O)OC(C)C (single isomer, unassigned) [Example 17A] | 15.9 nM | 78 nM | – | –
94.2% | CCCCCOC(=O)C(C)(C)NP(=O)(CO[C@H](C)Cn1cnc2c(N)ncnc21)N[C@H](C)C(=O)OC(C)C (single isomer, unassigned) [Example 17B] | 1.3 nM | 5.2 nM | – | –
49.3% | CCCCCOC(=O)C(C)(C)NP(=O)(CO[C@H](C)Cn1cnc2c(N)ncnc21)N[C@H](C)C(=O)OC1CCC1 (single isomer, unassigned) [Example 19B] | 2.5 nM | 10.8 nM | – | –
